# Source: patent publication US20080015147A1, “Method for inhibiting neuronal cell death” (priority 2006, published 2008)
# Entries after “also recorded” stand apart in the source; their conditions may differ.
# Experiments:
# Assay type in all cases: cell-based, mouse
# [1] = system: Akt; assay: Akt western blot; settings: all pH treatments; 48 hrs
# Method: (§1) Western blots using Akt and phosphorylated Akt (P-Akt) primary antibodies were conducted on all conditions of the cultured N38 cells to determine whether TCAP was preventing cell death by phosphorylation. The same western blot procedure outlined above was repeated with an Akt primary antibody (Cell Signalling, Beverly) at a titer of 1:500, followed by membrane incubation with anti-rabbit HRP-conjugated secondary antibody (Amersham, Baie d'Urfé) at 1:3000, followed by exposure on Kodak X-OMAT Blue film (Perkin Elmer Canada Inc, Vaudreuil-Dorion) for 30 min. Phospho Akt expression at 48 hrs was determined using the method described above with a PAkt primary antibody (Cell Signalling 9271) at 1:1000 followed by membrane incubation with anti-rabbit HRP-conjugated secondary antibody (Amersham, Baie d'Urfé) at 1:2000 followed by exposure on Kodak X-OMAT Blue film (Perkin Elmer Canada Inc, Vaudreuil-Dorion) overnight. Cultured N38 cells were serum-starved for 48 hours in order to induce phosphorylation and following the same protocol above were loaded as a control. Total optical density of the blots, were quantified using LabWorks 4.0 Image Acquisition and Analysis Software from Ultra-Violet Products Ltd. (UVP).
# [2] = system: superoxide copper chaperone (CCSD); assay: Superoxide copper chaperone (CCSD) expression by real-time PCR; settings: pH 8.4
# [3] = system: N38 cells; assay: Cell proliferation by direct hemocytometer counts; settings: for total cell numbers relative to vehicle: 48 hrs, 2×10^−7 M
# Method: At 24 and 48 hrs, the medium was replaced with medium buffered at pH 6.8, 7.4, 8.0 or 8.4. Half of the cell groups received (2×10^−7 M) TCAP-1, whereas the other half received phosphate buffered saline (PBS) pH 7.4 containing 8 g NaCl, 0.2 g KCl, 1.4 g Na2HPO4, 0.2 g KH2PO4 in. 800 mL ddH2O. For all groups, 4 replicates were run. Digital pictures were taken at 24, 48 and 72 hrs using an Olympus IX&1 inverted microscope at a magnification of 200× and analyzed using LabWorks 4.0 Image Acquisition and Analysis software (UltraViolet Products Ltd).
# The effect of TCAP-1 on cell proliferation at each pH was examined by direct counts using a hemocytometer and indirectly by assessing mitochondrial activity using a colorimetric MTT (3-[4,5-dimethylthiazol-2-yl]-2,5-diphenyl tetrazolium bromide) assay on cultured N38 cells. For hemocytometer counts, the cultures were incubated for 24 and 48 hrs. The cells were suspended using 1 ml of 0.25% Trypsin with EDTA (Gibco-Invitrogen, Burlington, Canada), centrifuged at 1600 RPM for 4 min, and resuspended with PBS. The cells in 50 μl aliquots were vortexed and counted on a hemocytometer.
# [4] = system: cleaved caspase 3; assay: Caspase 3 cleavage by immunoblot; settings: 48 hr; any pH condition for TCAP-1
# Method: Detection of caspase 3 cleavage was determined at 48 hrs. The samples at each pH and control (see above) were lysed using total protein isolation lysis buffer (described above). An aliquot of 25 μl of each sample was combined with 25 μl of 2×20% sodium dodecyl sulphate (SDS) sample buffer and loaded onto a 4-10% HCL-Tris pre cast polyacrylamide gel (BioRad, Mississauga). The gel was run at 200 v for 35 min and proteins were electrotransfered to a Hybond-C nitrocellulose membrane (Amersham, Baie d'Urfé) for 75 min at 100 v. After transfer, the membrane was washed with 10 ml of PBS with 0.05% Tween 20 (PBST) for 5 min at room temperature (RT) and the membrane was incubated in 10 ml of PBST-milk for one hour at RT followed by 3 times for 5 min washes with 10 ml of PBST. The membrane was then incubated with cleaved caspase 3 primary antibody (Cell Signaling Technology, Beverly) at a titre of 1:500 in 6 ml of PBST-milk with gentle agitation overnight at 4° C. The membranes were washed 3 times for 5 min with 10 ml of PBST followed by membrane incubation with anti-rabbit horseradish peroxidase (HRP)-conjugated secondary antibody (Amersham, Baie d'Urfé) at 1:3000 in 6 ml of PBST-milk with gentle agitation for 1 hr at RT. […]
# [5] = system: Phospho-Akt; assay: Phospho-Akt western blot; settings: all pH treatments; 48 hrs
# Method: as §1
# [6] = system: superoxide dismutase; assay: Superoxide dismutase gene expression by real-time PCR; settings: p<0.01
# [7] = system: catalase; assay: Catalase gene expression by real-time PCR; settings: p<0.001
# [8] = system: PARP; assay: PARP cleavage by immunoblot; settings: 48 hour; all pH treatments
# Method: Using the same protocol, changes in PARP expression were determined at 48 hrs. The membrane was incubated with PARP primary antibody (Cell Signaling Technology, Beverly) at a titre of 1:100. The membranes were washed 3 times for 5 min with 10 ml of PBST followed by membrane incubation with anti-rabbit horseradish peroxidase (HRP)-conjugated secondary antibody (Amersham, Baie d'Urfé) at 1:3000 in 6 ml of PBST-milk with gentle agitation for 1 hr at RT. The membranes were then washed 3 times for 5 min with 10 ml of PBST then exposed to Kodak X-OMAT Blue scientific imaging film (Perkin Elmer Canada Inc, Vaudreuil-Dorion) for 30 min. Total optical density of the blots, were quantified using LabWorks 4.0 Image Acquisition and Analysis Software from Ultra-Violet Products Ltd. (UVP).
# [9] = system: superoxide dismutase; assay: Superoxide dismutase western blot
substance,measurement,setting,value
teneurin C-terminus associated peptide [TCAP-1],"endogenous Akt on western blot, vehicle vs TCAP",[1],no difference in endogenous Akt
same,CCSD expression increase over vehicle treated cells,[2],~4.5 fold
same,total number of cells vs vehicle,"[3]; 24 hrs, any pH condition",no significant differences in the total number of cells
same,total cell numbers relative to vehicle,[3]; pH 6.8,increased the number of cells
same,total cell numbers relative to vehicle,"[3]; pH 6.8, listed as TCAP",inhibited the decrease in total cell numbers
same,total cell numbers relative to vehicle,[3]; pH 8.0,increased the number of cells
same,total cell numbers relative to vehicle,"[3]; pH 8.0, listed as TCAP",inhibited the decrease in total cell numbers
same,total cell numbers relative to vehicle,[3]; pH 8.4,increased the number of cells
same,total cell numbers relative to vehicle,"[3]; pH 8.4, listed as TCAP",inhibited the decrease in total cell numbers
same,caspase 3 cleavage product (17/19 kDa) on western blot,[4],could not be observed
same,Akt phosphorylation (serine 473) on western blot,[5],no bands in any samples; also recorded: no indication of AKT phosphorylation
same,superoxide dismutase gene expression vs vehicle,[6]; pH 7.4,increase over the vehicle treated cells
same,superoxide dismutase gene expression vs vehicle,[6]; pH 8.4,increase over the vehicle treated cells
same,catalase mRNA induction,[7]; pH 8.0,3 fold
same,catalase mRNA induction,[7]; pH 8.4,5 fold
same,"PARP on western blot, vehicle vs TCAP",[8],no significant differences between vehicle and TCAP treated samples
same,superoxide dismutase protein expression,[9]; pH 6.8,no significant differences in the expression of the superoxide dismutase protein
same,superoxide dismutase protein expression,[9]; pH 7.4,no significant differences in the expression of the superoxide dismutase protein
same,superoxide dismutase protein levels,"[9]; pH 8.0, p<0.05",reduced the pH-induced decline in superoxide dismutase levels
same,superoxide dismutase protein levels,"[9]; pH 8.4, p<0.01",reduced the pH-induced decline in superoxide dismutase levels
